Results: patent US11434250B2, “Pyrazolo[1,5a]pyrimidine derivatives as IRAK4 modulators” (Genentech, Inc., priority 2017, dated 2022)
pKi: −log10 of the molar value. Converted amounts (≈) assume the structure as drawn.

What was measured:
Kinetic solubility assay = type: physicochemical; conditions: for solubility kinetic at 24 h: PBS buffer with 2% DMSO, aqueous buffer, kinetic from dmso stock, PBS buffer pH 7.4, 2% DMSO, 24 hours shaking at room temperature, UHPLC-CLND; for Fold improvement in kinetic solubility: example compound versus its matched pair phenyl compound
Procedure: The kinetic solubility assay started with compound DMSO stock solutions. This assay used Millipore Multiscreen 96-well filter plates for the 24 hour equilibration shaking. Samples were prepared by adding 4 μL of the 10 mM compound DMSO stock solutions into 196 μL of PBS buffer pH 7.4 in the 96-well filter plates, yielding a compound concentration of 200 μM and 2% DMSO. The filter plate was sealed with aluminum sealing film and shaken at room temperature for 24 hours at 1000 rpm. When shaking has completed, the solutions were filtered into a clean 96-well plate utilizing a vacuum manifold. After filtration, some precipitate is often observed at the bottom of the filtration plate wells. Most of the precipitates appear to be crystalline under a polarizing light microscope. The filtrate samples were diluted by a factor of 2 using PBS pH7.4 buffer and then transferred to a 384-well plate for analysis by UHPLC-CLND (CLND: Chemiluminescence nitrogen detector). 5 μL of each sample was injected twice into the UHPLC-CLND for two repeat analysis.
Samples were detected and analyzed using UV 254 nm and CLND. UV 254 nm is used primarily to confirm the sample purity but in rare cases, is also used to quantify the concentration of compounds with no nitrogens, where additional work is done to create a compound specific calibration curve. The identification of CLND target peaks of each compound were confirmed by LCMS. Sample quantification was accomplished by CLND peak intensity, the calibration curve, and the number of nitrogen contained in the compound. One calibration curve of caffeine was used for solubility quantitative determination. A fresh calibration curve was created for every batch. The number of nitrogens in a compound used for this quantification was corrected for the actual configuration of the nitrogen in the compound.

human IRAK4 = human IRAK4 (Homo sapiens (Human), UniProt Q9NWZ3); assay: IRAK4 enzymatic assay (Transcreener fluorescence polarization, ADP detection); type: biochemical; conditions: recombinant full-length IRAK4; 125 uM ATP; 90 min
Procedure: Compounds were assayed for inhibition of human IRAK4 and IRAK1 catalytic activity using recombinant enzyme produced from insect cells. Full-length IRAK4 protein, carrying an N-terminal His6-Tag, was obtained from Life Technologies (Carlsbad, Calif., USA). The IRAK1 construct was produced internally and was comprised of IRAK1 residues Arg194 to Ser712, preceded by an NH2-terminal His6 tag and the coding sequence for glutathione-S-transferase.
Kinase activities were assayed using the Transcreener-Fluorecescence polarization platform (BelBrook Labs, Madison, Wis., USA) that measures amounts of the reaction product, ADP. […] Final IRAK4 assay conditions were 1.25 nM IRAK4; 125 uM ATP; 10 uM MgC2; 125 uM peptide in reaction buffer (25 mM HEPES (pH7.4); 2 mM Dithiothreitol; 0.015% Brij-35; and 0.5% dimethyl sulfoxide. The IRAK1 activity was optimized similarly, yielding final assay conditions of […] IRAK1; 62.5 uM ATP; 5 uM MgCl2, and 62.5 uM IRAK1 peptide in reaction buffer for 60 min.
Assays of compounds for kinase inhibition were performed using inhibitors serially-diluted in dimethyl sulfoxide, which was accomplished with a LabCyte Echo 555 liquid dispenser. 384 well assay plates spotted with compound received 4 ul of a 2× substrate (ATP+peptide) mix in reaction buffer, followed by 4 ul of 2× enzyme diluted in reaction buffer. Reactions were halted at 60 (IRAK1) or 90 (IRAK4) min by addition of 6 ul of detection buffer, containing EDTA ([…] final concentration), 0.95 ug of the ADP-binding antibody ADP2, ADP tracer (3 nM final concentration), and […] HEPES. Following a 1 hr incubation, fluorescence polarization of the ADP2-antibody::TRACER complex was read on a Tecan M1000 plate reader using a 635/20 excitation filter in combination with a 670/20 emission filter. Delta milli-P values were analyzed using Genedata software to fit dose-response curves and compute compound Ki values, using ATP Km values of 642 um and 83.2 uM for IRAK4 and IRAK1, respectively. Table 3 provides IRAK4 Ki values for representative compounds of the present invention.

[1] = Plasma protein binding using rapid equilibrium dialysis (RED); type: in vitro ADME; conditions: pH 7.4, human plasma, 37° C., read-out: Human PPB (converted)
Procedure: Plasma protein binding was measured in duplicate using rapid equilibrium dialysis (RED) device ((Thermo Scientific Pierce) in a 96-well format. Briefly, 10.0 μL drug or control compounds (0.5 mM in DMSO) was mixed with 1000 μL plasma (pH adjusted to 7.4) from various species (BioreclamationIVT). Aliquots of 300 μL drug/plasma mixture were placed into the donor side chamber of a single-use RED plate, and 500 μL aliquots of PBS buffer were placed into the adjacent chamber as the receiver side. The plate was incubated on an orbital shaker at 400 rpm, at 37° C. for 4 hours. After completion of incubation, 50 μL aliquots from the PBS buffer side were mixed with 5 μL of blank plasma matrix, and 5 μL from the donor side (plasma) were mixed with 50 μL blank PBS buffer. All samples were then crashed with 200 μL acetonitrile (containing internal standard) to precipitate plasma proteins. The samples were centrifuged at 3750 rpm for 10 min to pellet the proteins. The supernatants were carefully transferred to a fresh 96-well plate, and diluted with an equivalent volume of water. The samples were then analyzed by LC-MS/MS (ABI 4000, ABI Sciex). Data acquisition and processing was performed with Analyst 1.6.1 and Multiquant 2.1. The percent of protein binding and fraction unbound (fu) in matrix was calculated from taking the ratio of responses (peak areas) on the receiver side (buffer) to those on the donor side (plasma). The ratios were normalized to the internal standard.

Sequence of human IRAK4 (Q9NWZ3 whole entry, the tested form may be a part): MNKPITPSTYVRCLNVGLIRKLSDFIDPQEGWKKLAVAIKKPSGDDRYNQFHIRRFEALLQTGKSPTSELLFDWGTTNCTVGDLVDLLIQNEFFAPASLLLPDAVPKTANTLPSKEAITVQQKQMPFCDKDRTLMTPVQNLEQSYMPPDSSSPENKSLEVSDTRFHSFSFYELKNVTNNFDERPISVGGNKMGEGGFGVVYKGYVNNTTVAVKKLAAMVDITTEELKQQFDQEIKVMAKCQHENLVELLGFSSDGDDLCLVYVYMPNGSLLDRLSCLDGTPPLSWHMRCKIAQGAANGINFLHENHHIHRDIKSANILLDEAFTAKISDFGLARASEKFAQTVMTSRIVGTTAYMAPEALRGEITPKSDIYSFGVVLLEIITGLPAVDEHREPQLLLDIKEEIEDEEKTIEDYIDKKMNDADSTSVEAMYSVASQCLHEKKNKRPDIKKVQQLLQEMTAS

CC1(C)Cc2cc(NC(=O)c3cnn4cccnc34)c(N3CCN(CC(N)=O)CC3)nc2O1 [Example 6, N-[6-[4-(2-amino-2-oxo-ethyl)piperazin-1-yl]-2,2-dimethyl-3H-furo[2,3-b]pyridin-5-yl]pyrazolo[1,5-a]pyrimidine-3-carboxamide]
solubility kinetic at 24 h (Kinetic solubility assay): 143 µM (≈ 64.4 µg/mL)
Fold improvement in kinetic solubility (Kinetic solubility assay): 14.6
pKi (human IRAK4): 8.40
fraction unbound at 4 h, 5 µM [1]: 0.226

CC1(C)Cc2cc(NC(=O)c3cnn4cccnc34)c(N3CCN(CC(F)F)CC3)nc2O1 [Example 9, N-(6-(4-(2,2-Difluoroethyl)piperazin-1-yl)-2,2-dimethyl-2,3-dihydrofuro[2,3-b]pyridin-5-yl)pyrazolo[1,5-a]pyrimidine-3-carboxamide]
solubility kinetic at 24 h (Kinetic solubility assay): 137 µM (≈ 62.7 µg/mL)
Fold improvement in kinetic solubility (Kinetic solubility assay): 137.0
pKi (human IRAK4): 8.12
fraction unbound at 4 h, 5 µM [1]: 0.123
